Source: patent US11572590B2, “Methods for evaluating tumor cell spheroids using 3D microfluidic cell culture device” (Dana-Farber Cancer Institute, Inc., priority 2017, dated 2023)
Where two headings read alike, the source gives them in different places.

What was measured:
Assay in all cases: SelectScreen Kinase Profiling, single point inhibition and IC50 for off-target kinases
Type in all cases: biochemical
[1] = target: off-target kinases (Homo sapiens, UniProt P00519, Y253F); conditions: ABL1 Y253F, ATP Km app, ZLYTE
[2] = target: off-target kinases (Homo sapiens, UniProt P27037); conditions: ACVR2A, LanthaScreen Binding
[3] = target: off-target kinases (Homo sapiens, UniProt P45984); conditions: MAPK9 (JNK2)
[4] = target: off-target kinases (Homo sapiens, UniProt Q5S007, G2019S); conditions: ATP Km app, Adapta
[5] = target: T1, off-target kinases (Homo sapiens, UniProt Q9BXA7); conditions: STK22D (TSSK1), ATP Km app, ZLYTE
T1 sequence (Q9BXA7 1-367): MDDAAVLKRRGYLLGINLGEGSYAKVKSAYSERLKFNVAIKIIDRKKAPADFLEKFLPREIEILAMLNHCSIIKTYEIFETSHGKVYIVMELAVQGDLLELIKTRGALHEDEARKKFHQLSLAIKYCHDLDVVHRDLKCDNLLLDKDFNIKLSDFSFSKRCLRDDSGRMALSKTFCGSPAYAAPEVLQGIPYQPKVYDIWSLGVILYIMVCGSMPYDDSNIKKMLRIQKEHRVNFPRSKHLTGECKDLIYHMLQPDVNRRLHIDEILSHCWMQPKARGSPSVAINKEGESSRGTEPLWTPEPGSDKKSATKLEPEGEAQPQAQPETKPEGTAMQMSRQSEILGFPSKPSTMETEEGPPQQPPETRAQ

[6] = target: off-target kinases (Homo sapiens, UniProt Q9Y5S2); conditions: CDC42 BPB (MRCKB), ZLYTE, ATP Km app
Sequence of off-target kinases (Homo sapiens, UniProt Q9Y5S2) (Q9Y5S2 whole entry): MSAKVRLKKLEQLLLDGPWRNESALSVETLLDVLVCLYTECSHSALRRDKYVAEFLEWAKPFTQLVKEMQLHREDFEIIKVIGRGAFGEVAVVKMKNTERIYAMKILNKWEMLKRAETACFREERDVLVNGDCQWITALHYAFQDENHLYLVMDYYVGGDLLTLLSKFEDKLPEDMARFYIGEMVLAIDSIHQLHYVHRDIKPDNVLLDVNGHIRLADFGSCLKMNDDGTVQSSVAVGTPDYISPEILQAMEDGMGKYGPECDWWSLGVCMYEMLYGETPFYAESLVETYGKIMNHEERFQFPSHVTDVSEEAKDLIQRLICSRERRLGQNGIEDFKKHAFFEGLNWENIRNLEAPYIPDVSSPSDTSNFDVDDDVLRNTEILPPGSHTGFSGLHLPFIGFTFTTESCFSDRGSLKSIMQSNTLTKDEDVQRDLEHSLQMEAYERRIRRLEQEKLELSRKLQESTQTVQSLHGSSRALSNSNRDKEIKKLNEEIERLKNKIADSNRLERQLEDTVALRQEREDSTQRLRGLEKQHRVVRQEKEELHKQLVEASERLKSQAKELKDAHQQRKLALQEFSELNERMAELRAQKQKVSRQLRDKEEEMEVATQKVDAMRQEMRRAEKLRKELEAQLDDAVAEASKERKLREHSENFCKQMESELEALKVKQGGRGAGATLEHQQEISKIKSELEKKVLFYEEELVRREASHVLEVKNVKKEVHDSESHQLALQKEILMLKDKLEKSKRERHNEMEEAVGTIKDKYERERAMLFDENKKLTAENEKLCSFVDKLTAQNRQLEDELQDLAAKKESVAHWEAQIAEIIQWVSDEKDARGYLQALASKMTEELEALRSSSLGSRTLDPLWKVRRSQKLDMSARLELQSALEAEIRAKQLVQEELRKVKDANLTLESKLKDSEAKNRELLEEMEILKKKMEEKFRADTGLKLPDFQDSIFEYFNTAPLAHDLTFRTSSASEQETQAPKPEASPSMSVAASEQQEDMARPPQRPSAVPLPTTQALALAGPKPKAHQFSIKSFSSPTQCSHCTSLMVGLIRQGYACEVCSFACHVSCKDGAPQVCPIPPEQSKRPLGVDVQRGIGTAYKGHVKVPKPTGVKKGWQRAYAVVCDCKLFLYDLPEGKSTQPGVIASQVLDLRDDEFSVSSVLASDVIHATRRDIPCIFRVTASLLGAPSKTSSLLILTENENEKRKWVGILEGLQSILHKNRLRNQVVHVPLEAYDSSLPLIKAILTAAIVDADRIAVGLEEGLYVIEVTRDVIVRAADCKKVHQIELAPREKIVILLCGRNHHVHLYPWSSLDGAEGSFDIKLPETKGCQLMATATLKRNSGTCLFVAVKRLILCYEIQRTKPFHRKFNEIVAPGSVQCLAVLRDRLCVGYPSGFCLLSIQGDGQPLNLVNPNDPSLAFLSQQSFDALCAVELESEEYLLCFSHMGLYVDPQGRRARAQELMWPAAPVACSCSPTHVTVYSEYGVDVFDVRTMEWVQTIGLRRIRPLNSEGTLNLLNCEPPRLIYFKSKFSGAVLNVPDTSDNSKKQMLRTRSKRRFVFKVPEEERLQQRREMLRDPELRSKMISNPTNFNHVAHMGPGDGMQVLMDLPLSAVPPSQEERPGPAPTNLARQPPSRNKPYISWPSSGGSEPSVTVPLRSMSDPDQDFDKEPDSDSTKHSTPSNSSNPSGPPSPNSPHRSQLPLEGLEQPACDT

Sequence of off-target kinases (Homo sapiens, UniProt P27037) (P27037 20-513): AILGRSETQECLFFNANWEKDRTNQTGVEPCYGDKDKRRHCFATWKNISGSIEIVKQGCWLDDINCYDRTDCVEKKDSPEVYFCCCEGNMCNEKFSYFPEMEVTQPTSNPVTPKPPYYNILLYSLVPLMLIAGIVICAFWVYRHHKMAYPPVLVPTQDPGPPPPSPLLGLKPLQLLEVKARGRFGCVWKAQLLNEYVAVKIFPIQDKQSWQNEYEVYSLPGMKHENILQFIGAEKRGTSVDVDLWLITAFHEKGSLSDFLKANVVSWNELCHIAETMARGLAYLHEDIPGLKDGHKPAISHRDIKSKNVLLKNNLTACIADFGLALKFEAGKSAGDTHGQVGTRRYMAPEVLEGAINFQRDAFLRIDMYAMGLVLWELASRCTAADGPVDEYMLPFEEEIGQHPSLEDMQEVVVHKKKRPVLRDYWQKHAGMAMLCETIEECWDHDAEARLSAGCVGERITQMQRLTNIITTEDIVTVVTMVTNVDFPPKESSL
Sequence of off-target kinases (Homo sapiens, UniProt P45984) (P45984 whole entry): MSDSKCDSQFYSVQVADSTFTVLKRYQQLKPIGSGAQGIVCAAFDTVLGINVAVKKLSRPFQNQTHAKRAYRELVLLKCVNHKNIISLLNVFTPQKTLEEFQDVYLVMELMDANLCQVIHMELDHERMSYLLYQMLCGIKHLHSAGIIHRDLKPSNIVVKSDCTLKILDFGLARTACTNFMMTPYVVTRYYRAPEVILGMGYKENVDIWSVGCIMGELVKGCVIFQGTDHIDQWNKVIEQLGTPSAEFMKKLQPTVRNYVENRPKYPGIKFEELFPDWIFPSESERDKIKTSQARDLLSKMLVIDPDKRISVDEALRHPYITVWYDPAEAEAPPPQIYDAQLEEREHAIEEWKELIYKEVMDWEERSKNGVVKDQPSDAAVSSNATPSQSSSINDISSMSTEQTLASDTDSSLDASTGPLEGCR
Sequence of off-target kinases (Homo sapiens, UniProt Q5S007, G2019S) (Q5S007 whole entry G2019S): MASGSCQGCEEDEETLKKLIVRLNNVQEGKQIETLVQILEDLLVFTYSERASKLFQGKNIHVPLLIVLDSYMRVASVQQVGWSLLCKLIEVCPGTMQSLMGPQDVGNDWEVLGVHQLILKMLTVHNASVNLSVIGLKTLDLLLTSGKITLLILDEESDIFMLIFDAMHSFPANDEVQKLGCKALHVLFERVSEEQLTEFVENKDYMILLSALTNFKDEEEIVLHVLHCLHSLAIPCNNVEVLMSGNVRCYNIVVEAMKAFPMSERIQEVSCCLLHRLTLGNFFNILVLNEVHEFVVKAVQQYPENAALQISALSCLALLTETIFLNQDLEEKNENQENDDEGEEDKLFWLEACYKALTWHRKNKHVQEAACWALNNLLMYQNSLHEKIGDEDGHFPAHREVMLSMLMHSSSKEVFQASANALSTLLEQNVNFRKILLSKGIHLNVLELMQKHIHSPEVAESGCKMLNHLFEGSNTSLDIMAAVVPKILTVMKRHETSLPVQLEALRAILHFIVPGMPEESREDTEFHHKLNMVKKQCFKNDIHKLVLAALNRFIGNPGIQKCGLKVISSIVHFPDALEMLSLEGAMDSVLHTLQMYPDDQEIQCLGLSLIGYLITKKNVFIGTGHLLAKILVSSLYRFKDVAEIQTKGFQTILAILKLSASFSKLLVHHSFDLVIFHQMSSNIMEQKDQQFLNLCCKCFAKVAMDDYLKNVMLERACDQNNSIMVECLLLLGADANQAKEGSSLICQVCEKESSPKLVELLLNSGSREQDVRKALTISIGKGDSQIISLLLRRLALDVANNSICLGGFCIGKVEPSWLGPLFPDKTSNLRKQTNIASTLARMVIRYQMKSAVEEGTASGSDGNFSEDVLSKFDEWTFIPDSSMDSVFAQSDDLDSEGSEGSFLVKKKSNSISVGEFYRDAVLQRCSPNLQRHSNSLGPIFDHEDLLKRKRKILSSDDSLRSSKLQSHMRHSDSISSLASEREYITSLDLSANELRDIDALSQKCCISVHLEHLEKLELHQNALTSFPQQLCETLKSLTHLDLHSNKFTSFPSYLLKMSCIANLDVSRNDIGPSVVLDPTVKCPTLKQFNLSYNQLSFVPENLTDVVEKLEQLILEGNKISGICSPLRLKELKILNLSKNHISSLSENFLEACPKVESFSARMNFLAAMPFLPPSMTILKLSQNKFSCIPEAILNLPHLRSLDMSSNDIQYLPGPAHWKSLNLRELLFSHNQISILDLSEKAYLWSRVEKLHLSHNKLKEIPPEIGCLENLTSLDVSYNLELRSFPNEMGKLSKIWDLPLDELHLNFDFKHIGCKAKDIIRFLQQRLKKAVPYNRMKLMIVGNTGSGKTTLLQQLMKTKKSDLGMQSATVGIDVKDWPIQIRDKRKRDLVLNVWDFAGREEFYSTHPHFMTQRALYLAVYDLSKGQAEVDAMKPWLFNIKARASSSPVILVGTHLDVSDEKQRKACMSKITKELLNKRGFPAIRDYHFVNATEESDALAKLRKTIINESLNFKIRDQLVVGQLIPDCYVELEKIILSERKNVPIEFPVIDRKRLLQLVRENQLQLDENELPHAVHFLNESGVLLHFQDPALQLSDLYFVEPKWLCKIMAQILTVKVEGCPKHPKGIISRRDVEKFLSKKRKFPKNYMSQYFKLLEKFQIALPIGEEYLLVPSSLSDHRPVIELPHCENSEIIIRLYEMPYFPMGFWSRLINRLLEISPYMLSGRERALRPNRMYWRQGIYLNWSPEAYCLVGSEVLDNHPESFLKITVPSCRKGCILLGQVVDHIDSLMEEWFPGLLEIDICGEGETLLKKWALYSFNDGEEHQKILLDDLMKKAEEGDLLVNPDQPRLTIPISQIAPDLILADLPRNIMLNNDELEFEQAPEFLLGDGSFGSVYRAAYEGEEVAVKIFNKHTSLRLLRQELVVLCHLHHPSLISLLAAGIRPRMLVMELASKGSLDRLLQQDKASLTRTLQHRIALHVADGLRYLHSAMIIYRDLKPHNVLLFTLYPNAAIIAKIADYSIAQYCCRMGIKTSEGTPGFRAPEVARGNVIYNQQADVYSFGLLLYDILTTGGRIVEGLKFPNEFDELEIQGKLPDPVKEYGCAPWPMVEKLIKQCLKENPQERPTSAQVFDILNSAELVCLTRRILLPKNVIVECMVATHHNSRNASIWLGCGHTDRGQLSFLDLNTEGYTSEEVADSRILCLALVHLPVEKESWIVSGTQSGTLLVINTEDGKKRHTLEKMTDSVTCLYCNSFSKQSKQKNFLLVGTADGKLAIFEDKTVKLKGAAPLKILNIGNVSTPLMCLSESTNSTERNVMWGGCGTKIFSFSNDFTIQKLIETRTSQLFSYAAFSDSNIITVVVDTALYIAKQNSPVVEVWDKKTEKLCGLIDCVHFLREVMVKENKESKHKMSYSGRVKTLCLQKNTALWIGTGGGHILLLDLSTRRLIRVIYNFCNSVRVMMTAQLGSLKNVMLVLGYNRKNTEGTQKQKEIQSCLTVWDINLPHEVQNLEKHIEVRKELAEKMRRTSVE

In the case of `N#Cc1cc(-c2ncnc(Nc3ccc(N4CCN(C5COC5)CC4)cc3)n2)ccc1OC1CCOCC1` [Compound 1, 5-(4-((4-(4-(oxetan-3-yl)piperazin-1-yl)phenyl)amino)-1,3,5-triazin-2-yl)-2-((tetrahydro-2H-pyran-4-yl)oxy)benzonitrile], the inhibition ([1]; read-out: % Inhibition 1) is reported as 61%, the inhibition ([1]; read-out: % Inhibition 2) is reported as 48% and the inhibition ([1]; read-out: % Inhibition Avg) is reported as 54%. It also gave an inhibition ([2]; read-out: % Inhibition 1) of 23%, an inhibition ([2]; read-out: % Inhibition 2) of 21% and an inhibition ([2]; read-out: % Inhibition Avg) of 22%. For the same compound, the inhibition ([3]; LanthaScreen Binding, read-out: % Inhibition 1) was 12%, the inhibition ([3]; LanthaScreen Binding, read-out: % Inhibition 2) was 14% and the inhibition ([3]; LanthaScreen Binding, read-out: % Inhibition Avg) was 13%. The inhibition ([3]; ZLYTE, ATP 100, read-out: % Inhibition 1) was 12%, the inhibition ([3]; ZLYTE, ATP 100, read-out: % Inhibition 2) was 21% and the inhibition ([3]; ZLYTE, ATP 100, read-out: % Inhibition Avg) was 16%. For the same compound, the inhibition ([4]; LRRK2 G2019S FL, read-out: % Inhibition 1) was 100%, the inhibition ([4]; LRRK2 G2019S FL, read-out: % Inhibition 2) was 99% and the inhibition ([4]; LRRK2 G2019S FL, read-out: % Inhibition Avg) was 99%. It also gave an inhibition ([4]; LRRK2 G2019S, read-out: % Inhibition 1) of 99%, an inhibition ([4]; LRRK2 G2019S, read-out: % Inhibition 2) of 100% and an inhibition ([4]; LRRK2 G2019S, read-out: % Inhibition Avg) of 100%. It also gave an inhibition ([5]; read-out: % Inhibition 1) of 99%, an inhibition ([5]; read-out: % Inhibition 2) of 95% and an inhibition ([5]; read-out: % Inhibition Avg) of 97%. The inhibition ([6]; read-out: % Inhibition 1) was 6%, the inhibition ([6]; read-out: % Inhibition 2) was 13% and the inhibition ([6]; read-out: % Inhibition Avg) was 10%.
